Results published in patent publication US5369112A, “Method of treating cataracts caused by active oxygen” (Mitsubishi Gas Chemical Company, Inc., priority 1991, dated 1994).
Like-named read-outs stand apart in the source and are kept apart here. Each block holds one molecule with its values, some of them ahead of it.

Tests used:
[1] = Superoxide scavenging activity (hypoxanthine-xanthine oxidase, DMPO spin trapping, ESR); type: biochemical; details: pH 7.3, read-out: O2^- scavenging activity IC50
From the text: Activity of PQQ esters to scavenge superoxide (O2^-) produced in the system of hypoxanthinexanthine oxidase was examined by spin trapping method [using 5,5-dimethyl-l-pyrroline-N-oxide (hereinafter referred to as "DMPO") as a spin trapping agent] where electron spin resonance (hereinafter referred to as "ESR") was used.
Hypoxanthine+2O2 →2O2^- +uric acid (xanthine oxidase)
The following reagents were successively put in a test tube and stirred after addition of the hypoxanthine 7 to initiate the reaction and the reaction mixture was transferred to a quartz cell used for measurement of ESR.
Superoxide scavenging activity of OPQ and esters thereof was examined in the same manner as in Example 1.

mice [2] = assay: Kidney Toxicity Determined by Blood Examination (1); type: in vivo; details: mouse, in vivo
Method: After lapse of one day from the administration, the mice were fasted (with feeding only water) and then after 18 hours, blood was collected and serum was obtained therefrom. Glucose, urea nitrogen and creatinine in the serum were examined by clinical examination reagent (trademark: FUJI DRYCHEMSLIDE manufactured by Fuji Photo Film Co., Ltd.).

[3] = test system: Hydrocortisone-Induced Cataract of Hen's Eggs; assay: Effect on hydrocortisone-induced cataract of hen's eggs; type: in vivo, white leghorn (hen's eggs); details: 1 μmole at 3, 10 and 20 h after hydrocortisone; lens at 48 h
Method: Fertilized eggs of white leghorn were incubated in an incubator at a temperature of 37° C. and 70% in humidity. The day on which the incubation was started was taken to be one day old. […] eggs of 15 day old were prepared and divided into 7 groups, each of which included 5 eggs (A-G). A small hole was bored through the eggshell above air chamber of the eggs of groups B-G and 0.25 μmole (as 0.2 ml solution) of hydrocortisone sodium succinate was administered into the air chamber through the hole and then, the hole was sealed with a cellophane tape. To The eggs of groups C-G was administered 1 μmole of following compounds after 3, 10 and 20 hours from administration of hydrocortisone sodium succinate. That is, 0.2 ml of a solution of PQQ·2Na in distilled water was administered to the eggs of group C, 0.2 ml of a suspension of PQQ trimethyl ester in 1% Tween 80 solution was administered to the eggs of group D, 0.2 ml of a suspension of triallyl ester in 1% Tween 80 solution was administered to the eggs of group E, 0.2 ml of a solution of OPQ in 10 mM NaCO3 solution was administered to the eggs of group F, and 0.2 ml of a solution of methyl OPQ in 10 mM NaCO3 solution was administered to the eggs of group G.
Crystal lens was taken out after 48 hours from administration of hydrocortisone sodium succinate and degree of cataract was judged by the criteria according to the Nishigori et al method (Nishigori et al, "Investigative Ophthalmology & Visual Science", Vol. 25, page 1051, 1984).
5 The whole nucleus was hazed in white.

mice [4] = details: mouse, in vivo, ip
Method: One group consisted of 8 mice. For administration, PQQ·2Na and OPQ and esters thereof were dissolved in physiological saline and PQQ trimethyl ester and PQQ triallyl ester were suspended in 1% Tween 80-containing physiological saline, respectively.
PQQ·2Na, PQQ trimethyl ester, PQQ triallyl ester and OPQ and esters thereof were intraperitoneally administered to mice and they were bred in the same manner as in the above acute toxicity test. Urine of the mice was taken every day and glucose concentration was measured using clinical examination reagent (trademark: […] 2 manufactured by Miles.Sankyo Co.).

[5] = Hydroxy radical scavenging activity (H2O2-(Fe^2+-DTPA), DMPO spin trapping, ESR); type: biochemical; details: pH 7.3, read-out: .OH scavenging activity IC50
From the text: Activity of PQQ esters to scavenge hydroxy radical (·OH) produced in the system of H2 O2 --(Fe^2+ -DTPA) was examined by spin trapping method [using 5,5-dimethyl-1-pyrroline-N-oxide (hereinafter referred to as "DMPO") as a spin trapping agent] where electron spin resonance (hereinafter referred to as "ESR") was used. DTPA means diethylenetriamine-pentaacetic acid.
H2 O2 +Fe^2 -DTPA complex→·OH+OH^-
The following reagents were successively put in a test tube and stirred after addition of H2 O2 6 to initiate the reaction and the reaction mixture was transferred to a quartz cell used for measurement of ESR.
Hydroxy radical scavenging activity of OPQ and esters thereof was examined in the same manner as in Example 3.

[6] = bovine, not told, 960 min
Method: Permeability of various compounds through capsule of crystal bovine lens was examined in accordance with the method mentioned in "Crystal Lens and Biochemical Mechanism thereof" (pages 436-440) edited by Shuzo Iwata (Medical Aoi Publisher). Each compound dissolved in 10 mM HEPES buffer (containing 1% DMSO in the case of PQQ triesters) was put in an apparatus for measurement of membrane permeation constant and left to stand for 16 hours at 35° C. and then amount of the compound which migrated was measured by ultraviolet absorption (243 nm for PQQ·2Na and 255 nm for PQQ esters) to obtain membrane permeation constant.

male mice SPF-ICR = assay: Acute toxicity test (1), intraperitoneal; details: mouse, in vivo, ip
Method: To male mice SPF-ICR five weeks old (supplied by Japan Charles River Co.) were intraperitoneally administered PQQ·2Na, PQQ trimethyl ester, PQQ triallyl ester, OPQ, 1-methylpropyl OPQ, 2-methylthioethyl OPQ and benzyl OPQ at dosages of 40, 80, 160 and 200 mg per kg of body weight of mouce, respectively and they were bred for 14 days at 25° C. One group consisted of 8 mice. For administration, PQQ·2Na and OPQ and esters thereof were dissolved in physiological saline and PQQ trimethyl ester and PQQ triallyl ester were suspended in 1% Tween 80-containing physiological saline, respectively.

IC50 ([1]; Example 1, Table 6): 0.0609 µM
Molecule: PQQ monomethyl ester

Molecule: O=C(O)c1cc(C(=O)O)c2c(n1)C(=O)C(=O)c1cc(C(=O)O)[nH]c1-2 [PQQ.2Na, reference compound]
contents of glucose, urea nitrogen and creatinine in serum (mice [2]): Sharp reduction of glucose and much increase of urea nitrogen and creatinine | kidney toxicity (mice [2]): kidney toxicity was recognized | Creatinine (mice [2]; 20 mg/kg): 0.8 ± 0.1 mg/dL | Glucose (mice [2]; 20 mg/kg): 70 ± 13 mg/dL | Urea nitrogen (mice [2]; 20 mg/kg): 25 ± 3 mg/dL | Creatinine (mice [2]; 40 mg/kg): 2.3 ± 1.0 mg/dL | Glucose (mice [2]; 40 mg/kg): 60 ± 12 mg/dL | Urea nitrogen (mice [2]; 40 mg/kg): 110 ± 38 mg/dL | Creatinine (mice [2]; 80 mg/kg): 3.4 ± 0.4 mg/dL | Glucose (mice [2]; 80 mg/kg): 57 ± 15 mg/dL | Urea nitrogen (mice [2]; 80 mg/kg): 130 ± 18 mg/dL | Creatinine (mice [2]; 160 mg/kg): 4.1 ± 0.2 mg/dL | Glucose (mice [2]; 160 mg/kg): 35 ± 7 mg/dL | Urea nitrogen (mice [2]; 160 mg/kg): 139 ± 3 mg/dL | IC50 ([1]; Example 1, Table 6): 0.0383 µM | Judgement 1 (No haze was seen in crystal lens), eggs [3]: 1/5 | Judgement 2 (Slight opaque ring was seen in crystal lens), eggs [3]: 2/5 | Judgement 4 ~ 5 (white haze of pinhole size in nucleus ~ whole nucleus hazed in white), eggs [3]: 2/5 | glucose detected in urine (mice [4]): glucose was detected in urine | glucose in urine (mice [4]; 20 mg/kg): - | glucose in urine (mice [4]; 40 mg/kg): - | glucose in urine (mice [4]; 80 mg/kg): - | IC50 ([5]; Example 3, Table 8): 64 µM | Membrane permeation constant [6]: 0.68 ± 0.36 10 ^-7 cm^2 · sec^-1 | mice died (male mice SPF-ICR; 40 mg/kg): No mice died | mice died (male mice SPF-ICR; 80 mg/kg): five mice died | mice died (male mice SPF-ICR; 160 mg/kg): eight mice all died | mice died (male mice SPF-ICR; 200 mg/kg): eight mice all died

IC50 ([1]; Example 2, Table 7): 3.2 µM | IC50 ([5]; Example 4, Table 9): 194 µM
Molecule: NC(=O)CCc1nc2c3nc(C(=O)O)cc(C(=O)O)c3c3[nH]c(C(=O)O)cc3c2o1 [2-Carbamoylethyl OPQ, 2-carbamoylethyl OPQ (R=CH2 CH2 CONH2)]

IC50 ([1]; Example 2, Table 7): 3.52 µM | IC50 ([5]; Example 4, Table 9): 305 µM
Molecule: O=C(O)c1cc(C(=O)O)c2c(n1)c1nc(CO)oc1c1cc(C(=O)O)[nH]c12 [Hydroxymethyl OPQ, hydroxymethyl OPQ (R=CH2 OH)]

IC50 ([1]; Example 2, Table 7): 2.96 µM | IC50 ([5]; Example 4, Table 9): 110 µM
Molecule: O=C(O)CCc1nc2c3nc(C(=O)O)cc(C(=O)O)c3c3[nH]c(C(=O)O)cc3c2o1 [2-Carboxyethyl OPQ, 2-carboxyethyl OPQ (R=CH2 CH2 CO2 H)]

IC50 ([1]; Example 2, Table 7): 4.12 µM | IC50 ([5]; Example 4, Table 9): 314 µM
Molecule: O=C(O)c1cc(C(=O)O)c2c(n1)c1nc(Cc3ccc(O)cc3)oc1c1cc(C(=O)O)[nH]c12 [4-Hydroxyphenylmethyl OPQ, 4-hydroxyphenylmethyl OPQ]

IC50 ([1]; Example 1, Table 6): 0.0769 µM | IC50 ([5]; Example 3, Table 8): 31 µM
Molecule: O=C(OCc1ccccc1)c1cc(C(=O)OCc2ccccc2)c2c(n1)C(=O)C(=O)c1cc(C(=O)OCc3ccccc3)[nH]c1-2 [PQQ tribenzyl ester]

IC50 ([1]; Example 1, Table 6): 0.0106 µM
Molecule: PQQ dimethyl ester
